Measurements from patent US20250032624A1, “SMALL MOLECULE DEGRADATION METHODS FOR TREATING ALS/FTD” (University of Florida Research Foundation, Incorporated, priority 2021, published 2025).

Legend:
[1] = system: RAN translation, poly(GP); experiment: poly(GP) abundance in c9ALS/FTD iPSNs; format: cell-based, human; conditions: 500 nM, treated 17 days (day 15-32)
Description: Differentiated motor neurons (iPSNs) were derived from the iPSCs listed in the previous section. The differentiation process was based on a previously reported method with slight modifications^33,34. Briefly, iPSCs were plated into Matrigel-coated 100 mm dishes (30-40% confluence). Neuroepithelial induction was performed by replacing the Basal medium with Stage 1 medium [47.5% IMDM (Iscove's Modified Dulbecco's Medium), 47.5% F12 medium, 1% NEAA (Non-Essential Amino Acids) (Life Technologies), 2% B27 (Invitrogen), 1% N2 (Invitrogen), 1% PSA (Penicillin-Streptomycin-Amphotericin), 0.2 μM LDN193189 (Stemgent), 10 μM SB431542 (STEMCELL Technologies) and 3 μM CHIR99021 (Sigma-Aldrich)]. The medium was changed daily for 6 days, after which cells were detached from plates using Accutase (STEMCELL Technologies). Cells were seeded into 6-well plates (1.5×10^6 cells/well) in 3 mL of Stage 2 medium [Stage 1 medium supplemented with 0.1 μM All-trans RA (Sigma-Aldrich) and 1 μM SAG (Cayman Chemicals)]. […]
Meso Scale Discovery (MSD) Technology utilizes electrochemiluminescence to detect biomarkers, such as poly(GP), in protein samples. […] Protein samples were quantified using a Pierce™ Micro BCA Protein Assay Kit (Thermo Scientific).
Poly(GP) levels were measured by an electrochemical luminescent sandwich immunoassay. […]

[2] = system: r(G4C2)^exp-containing C9orf72 transcript; experiment: C9orf72 variants by RT-qPCR in brain of +/+PWR500 BAC mice; format: in vivo, mouse; conditions: 3 weeks
Description: (§1) A total of 20 age- and gender-matched mice (12 +/+PWR500 [5 Male and 7 Female] and 8 WT [4 Male and 4 Female]), ranging from 18-21 weeks old were used in therapeutic efficacy studies (Table 4). Mice were treated with a single bolus injection of 33 nmol of compound 2 formulated in 1% (v/v) DMSO/99% water, administered by an intracerebroventricular injection (ICV). Three weeks post injection, mice were euthanized, and tissue was harvested for study.
Postmortem brain tissue was harvested and sliced along the sagittal plane at the midline. The left hemisphere was frozen for RNA and protein analysis. Frozen brain tissue was homogenized in 300 μL Tris-EDTA buffer with a 1:5 w/v ratio of 2× Protease and Phosphatase Inhibitors. RNA was extracted from half of the homogenized tissue solution (150 μL) using Triazol LS (added at a 1:3 ratio to the homogenized tissue). The Triazol/tissue solution was centrifuged for 15 minutes at 16,000 rpm and the supernatant was collected. An equal volume of 100% ethanol was added to the supernatant, and RNA was purified using the Direct-zol RNA Kit (Zymo Research) per the manufacturer's protocol. RT-qPCR was then performed as described above. Expression levels of mRNAs were normalized to mouse β-actin.

β-actin = β-actin abundance in brain of -/-PWR500 (WT) mice; format: in vivo, mouse
Description: as §1
Postmortem brain tissue was harvested and sliced along the sagittal plane at the midline. The left hemisphere was frozen for RNA and protein analysis. Frozen brain tissue was homogenized in 300 μL Tris-EDTA buffer with a 1:5 w/v ratio of 2× protease and phosphatase inhibitors, as was done for RNA analysis of the tissue. Half of the homogenized tissue (150 μL) was mixed with 2× Lysis Buffer (50 mM Tris, pH 7.4, 250 mM NaCl, 2% (v/v) Triton X-100, and 4% (w/v) SDS) and sonicated at 1 second on/off intervals at 30% for a total of 15 seconds. Detergent from was removed using a Pierce™ Detergent Removal Spin Column 0.5 mL (Thermo Scientific) according to the manufacturer's protocol. Protein concentrations were then measured by BCA assay (Pierce Biotechnology) and poly(GP) was measured as described above for the electrochemical luminescent sandwich immunoassay.

[3] = single ICV injection of 10 mg/kg, total brain tissue

## CCOC(=O)C1=C(Nc2ccccc2)S/C(=C\c2ccc(OCCOCCOCCOCCNC(=O)CCCOc3ccc4c(c3)c3cc5c(C(=O)N[C@H](C)CN(C)C)nccc5c(C)c3n4C)c(O)c2)C1=O [ALS Compound Formula I]
[1]
  reduction of poly(GP) abundance: ~60%
[2]; [3]
  decrease of C9orf72 intron 1 abundance: ~25%
  decrease of exon 2-3 abundance: ~20%
[2]; single ICV injection
  exon 1b abundance: unchanged
  exon 1b to exon 2 junction (human C9orf72 abundance): unchanged
β-actin
  β-actin abundance: no reduction
